The numbers were not newly measured in US5561042A, “Diamine platinum naphthalimide complexes as antitumor agents” (Cancer Therapy and Research Center, priority 1995, dated 1996), which cites them from elsewhere.

Structures are written as SMILES.

For series [1], the system named is SV40 DNA (Form I, negatively supercoiled). The conditions noted are these: comparison with compound 21; no own test described; cited from earlier work.
Series [2] relates to DLD-2 human colon adenocarcinoma. The conditions noted are these: in vivo; cited from earlier work.
The test system of series [3] is B16 melanoma. The conditions noted are these: cited from earlier work.
For series [4] the following is noted: cited from earlier work.
Series [5] deals with MX-1 human breast carcinoma. The conditions noted are these: in vivo; cited from earlier work.

As for `N.N.[Cl][Pt][Cl]` [Cisplatin], the “effect on DNA conformation (in words)” value in series [1] was “does not show such an effect and causes unwinding only after prolonged incubation”.

As for `CS(=O)(=O)O.O=C1c2cccc3cc([N+](=O)[O-])cc(c23)C(=O)N1CCCCNCCCN1C(=O)c2cccc3cc([N+](=O)[O-])cc(c23)C1=O` [XB596], the “anti-tumor activity, DLD-2 (in words)” value in series [2] is “demonstrated in vivo anti-tumor activity”. Also, the “activity against B16 melanoma (in words)” value in series [3] is recorded as “ineffective against B16 melanoma”. For the same compound, in series [4], the water solubility is 45 mg/L. Moreover, the “anti-tumor activity, MX-1 (in words)” value in series [5] is reported as “demonstrated in vivo anti-tumor activity”.
